According to patent publication US6692928B1, “Methods for identifying cardiovascular agents” (New England Medical Center Hospitals, Inc., priority 1996, dated 2004):
Like-named read-outs stand apart in the source and are kept apart here.

Legend:
[1] = system: eNOS; assay: eNOS activity in ovine pulmonary aortic endothelial cells (PAEC); assay type: cell-based; settings: for basal eNOS activity: no E2
Excerpt: (§1) Several molecular and pharmacologic interventions can disrupt this rapid ERα-eNOS signaling pathway.

[2] = system: iNOS protein; assay: iNOS protein level by immunoblotting; assay type: cell-based, rat; settings: n=3
Excerpt: (§2) ER-regulation of two cardiac target genes, iNOS and eNOS, were studied in transient transfection experiments using either an iNOS-luciferase reporter plasmid (containing 1.1 Kb of the 5′-flanking region of the human iNOS gene driving expression of the luciferase cDNA) or an eNOS luciferase reporter plasmid (containing 1.6 Kb of the 5′ flanking region of the human eNOS gene driving expression of the luciferase cDNA). […] In these experiments, E2 increased the abundance of iNOS protein (50+/−23-fold; n=3; p<0.05) as well as eNOS protein (15.7+/−4.3 fold; n=3; p<0.05).

[3] = system: human iNOS gene; assay: iNOS-luciferase reporter in rat cardiomyocytes; assay type: cell-based; settings: 1 nM E2, 48 hours
Excerpt: as §2

[4] = system: human eNOS gene; assay: eNOS luciferase reporter in rat cardiomyocytes; assay type: cell-based; settings: 1 nM E2, 48 hours
Excerpt: as §2

[5] = system: eNOS; assay: eNOS activity in transfected COS 7 cells; assay type: cell-based
Excerpt: In contrast, ERα and eNOS coexpression had no effect on basal (unstimulated) eNOS activity (102+/−33% of activity in sham-transfected cells (ERα(−)).

[6] = system: MAP kinase; assay: MAP kinase activity in PAEC; assay type: cell-based, ovine; settings: 5 minute exposure, 10^−8M E2
Excerpt: as §1

[7] = system: vascular injury response; settings: 14 days after carotid injury, physiologic levels
Excerpt: Vascular medial are increases and smooth muscle cell proliferation were quantitated 14 days following cartoid injury in ovariectomized female mice treated with vehicle or physiologic levels of 17-β estradiol.

[8] = system: eNOS protein; assay: eNOS protein level by immunoblotting; assay type: cell-based, rat; settings: n=3
Excerpt: as §2

[9] = system: endothelium-denuded aortic rings; assay: Mouse aortic vascular ring bioassay, phenylephrine-induced constriction; settings: male mice
Excerpt: An eight-chamber vascular ring bioassay system may be used to study vasomotion in vascular rings from mice. Vascular contraction and relaxation may be examined in endothelial-intact and endothelial-denuded mouse aortic vascular rings. […] The mouse aortic ring experiments may be carried out in rings from wild type, ERαKO and ERβKO animals.

[10] = system: vascular injury; assay: Mouse carotid injury model, L-NAME and eNOS knockout studies; assay type: in vivo, mice
Excerpt: Two endpoints were routinely analyzed. First, computerized morphometrics were collected to examine the extent of vascular injury by quantitating medial area measurements. Second, BrdU labeling of VSMC and endothelial cells that proliferated following the injury was quantitated, which required extensive immunohistochemical staining for (i) BrdU, (ii) smooth muscle α-actin, and (iii) Factor VIII-related antigen (endothelial cells).
The studies may also be carried out in wild type mice and mice lacking ERα, ERβ, eNOS, iNOS, or nNOS, or in mice lacking a combination of these proteins. The level of NOS isoforms may be examined using isoform-specific antibodies.

[11] = target: T1, estrogen receptor (Homo sapiens, UniProt P03372); assay: ERE-Luc reporter activation of the estrogen receptor in transfected cells; assay type: cell-based
T1 construct: expressed in transfected cells; host or cells: PVEC, HSVSMC, human aortic VSMC, HeLa (transient transfection)
T1 sequence (P03372 1-595): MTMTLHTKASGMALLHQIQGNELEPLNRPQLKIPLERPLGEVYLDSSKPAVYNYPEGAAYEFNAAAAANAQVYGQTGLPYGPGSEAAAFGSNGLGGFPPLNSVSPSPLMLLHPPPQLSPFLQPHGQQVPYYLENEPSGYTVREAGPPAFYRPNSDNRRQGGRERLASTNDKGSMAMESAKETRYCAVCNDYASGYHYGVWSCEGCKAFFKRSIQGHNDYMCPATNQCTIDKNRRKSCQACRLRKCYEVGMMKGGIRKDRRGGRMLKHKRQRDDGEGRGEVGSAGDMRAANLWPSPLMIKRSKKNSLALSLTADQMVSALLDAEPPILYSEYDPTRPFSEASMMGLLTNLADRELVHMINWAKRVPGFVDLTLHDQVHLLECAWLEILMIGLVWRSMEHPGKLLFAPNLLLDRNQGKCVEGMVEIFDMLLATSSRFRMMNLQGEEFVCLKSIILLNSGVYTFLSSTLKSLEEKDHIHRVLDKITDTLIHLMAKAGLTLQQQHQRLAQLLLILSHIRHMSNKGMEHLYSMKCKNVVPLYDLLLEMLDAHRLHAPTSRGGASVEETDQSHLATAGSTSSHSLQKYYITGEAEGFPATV
Experimental: The cells were then cultured for 48 hours in serum-free medium in the absence or presence of EGF (100 ng/ml).

[12] = system: PAEC; assay: Protein tyrosine phosphorylation in PAEC; assay type: cell-based
Experimental: An immortalized PAEC line retains the ER-eNOS activation pathway completely and provides a useful reagent for identifying other members of the pathway. Experiments indicate that a number of proteins are rapidly tyrosine phosphorylated following exposure of PAEC to estrogen. This occurs within 5-10 minutes and includes a series of low molecular weight proteins (15-40 Kd), as well as several larger proteins.

[13] = system: VEGF gene; assay: VEGF-luciferase reporter, transiently transfected HeLa cells; assay type: cell-based
Excerpt: (§3) To study the role of estrogen on expression of the VEGF gene in vascular smooth muscle cells, human saphenous vein smooth muscle cells (HSVSMC) and HeLa cells were transiently transfected with a VEGF-luciferase reporter construct. In this reporter construct, expression of luciferase is under the control of a 1.2 kB fragment of the murine VEGF gene regulatory region. The cells were also transfected with an estrogen receptor α expression construct. All of the results described below have been normalized for transfection efficiency.

[14] = system: VEGF expression; assay: pmVEGF-Luc reporter in WB572 cells; assay type: cell-based, human; settings: estrogen 10^−6M, 48 hours
Excerpt: (§4) One useful reporter construct is pmVEGF-Luc. In this reporter construct, a 1.6 kB fragment of genomic DNA located upstream of the murine vascular endothelial cell growth factor (VEGF) gene has been inserted into the pGL2-Basic luciferase reporter plasmid (Promega; Madison, Wis.). The 1.6 kB fragment includes the transcription start site, 1.2 kB of sequence upstream of the start site, and 0.4 kB of sequence downstream of the start site. Useful variants of this reporter plasmid can be made by deleting a portion of the murine VEGF control region. For example, pVEGF-Luc-Apa/Kpn is identical to pVEGF-luc except that 455 bp at the 5′ end of the 1.6 kB fragment have been removed; pVEGF-Luc-Mlu is identical to pVEGF-luc except that 768 bp at the 5′ end of the 1.6 kB fragment have been removed; and pVEGF-Luc-Sma is identical to pVEGF-luc except that 455 bp at the 5′ end of the 1.6 kB fragment have been removed. Similar reporter constructs can be created using upstream regulatory sequences from the human VEGF gene. For example, phVEGF-Luc is a reporter construct in which 5.1 kb genomic DNA upstream of the human VEGF coding sequence inserted into the pGL2-Basic luciferase reporter plasmid. This particular construct includes 3.4 kb of sequence upstream of the VEGF transcription start site and 1.7 kb untranslated sequence downstream of the transcription start site.

[15] = system: VEGF gene; assay: VEGF-luciferase reporter, transiently transfected HSVSMC; assay type: cell-based, human; settings: VEGF-luciferase + estrogen receptor α construct, 1 μM estrogen, n=12
Excerpt: as §3

[16] = system: pERE-Luc reporter; assay: pERE-Luc reporter in GH3B6 cells; assay type: cell-based, rat; settings: same conditions (estrogen 10^−6M, 48 hours)
[17] = estrogen replacement therapy, by as much as; cited from earlier work
[18] = system: VEGF expression; assay: pmVEGF-Luc reporter in GH3B6 cells; assay type: cell-based, rat; settings: estrogen 10^−6M, 48 hours
Excerpt: as §4

[19] = system: VEGF expression; assay: VEGF expression in rat VSMC (A7r5 cells); assay type: cell-based

## C[C@]12CC[C@@H]3c4ccc(O)cc4CC[C@H]3[C@@H]1CC[C@H]2O [17α-estradiol]
[1]; PAEC, 10^−12 to 10^−6M
  eNOS activity: had no effect

## C[C@]12CC[C@@H]3c4ccc(O)cc4CC[C@H]3[C@@H]1CC[C@@H]2O [E2, 17β-estradiol]
[2]
  increase in abundance of iNOS protein: 50+/−23 fold
[3]; n=9
  increase of iNOS reporter activity: 8.1+/−0.02 fold
[1]; PAEC, E2 10^−8M
  eNOS activity: stimulates eNOS activity
  time to maximal eNOS stimulation: ≤ 5 min
[4]; n=9
  increase of eNOS reporter activity: 6.9+/−0.06 fold
[5]; COS 7 cells transfected with eNOS alone
  eNOS activity: had no effect
[5]; COS 7 cells transfected with eNOS and ERα, acute stimulation
  increase in eNOS activity: > 3 fold
[6]
  MAP kinase activity: causes an increase in MAP kinase activity
[7]; estrogen receptor α knockout ovariectomized female mice
  vascular injury measures (medial area increase, smooth muscle cell proliferation): markedly inhibited all measures of vascular injury
[7]; wild-type ovariectomized female mice
  vascular injury measures (medial area increase, smooth muscle cell proliferation): markedly inhibited all measures of vascular injury
[8]
  increase in abundance of eNOS protein: 15.7+/−4.3 fold
[9]; chronic (18h) treatment
  phenylephrine-induced constriction: inhibited contraction

## C[C@]12CC[C@@H]3c4ccc(O)cc4C[C@@H](CCCCCCCCC[S+]([O-])CCCC(F)(F)C(F)(F)F)[C@H]3[C@@H]1CC[C@@H]2O (stereo partly drawn) [ICI 182,780]
[3]
  inhibition of E2 activation of iNOS reporter: completely inhibited
[1]; PAEC
  inhibition of acute eNOS response to E2: fully inhibited
  basal eNOS activity: caused no change
[1]; PAEC overexpressing ER
  inhibition of the enhanced eNOS response: inhibited completely
[4]
  inhibition of E2 activation of eNOS reporter: blocked fully
[6]
  inhibition of E2-induced increase in MAP kinase activity: completely inhibited

## COC(=O)[C@@H](N)CCCNC(=N)N[N+](=O)[O-] [L-NAME]
[10]; co-administration with estrogen, ovariectomized female mice
  effect on estrogen protection against vascular injury (medial area): negated
[9]
  effect on the 17β estradiol inhibition of contraction: reversed the inhibition

## COc1cccc(-c2cc(=O)c3ccccc3o2)c1N [PD98059]
[1]; PAEC
  inhibition of acute eNOS response to E2: completely inhibit

## O=c1c(-c2ccc(O)cc2)coc2cc(O)cc(O)c12 [genistein]
[1]; PAEC
  inhibition of acute eNOS response to E2: completely inhibit
  basal eNOS activity: do not alter basal eNOS activity

## CC/C(=C(\c1ccccc1)c1ccc(OCCN(C)C)cc1)c1ccccc1 [tamoxifen]
[1]; PAEC
  inhibition of acute eNOS response to E2: fully inhibited
  basal eNOS activity: caused no change
[6]
  inhibition of E2-induced increase in MAP kinase activity: completely inhibited

## EGF: epidermal growth factor
[11]; HeLa cells, EGF 100 ng/ml, 48 hours, serum-free
  effect on luciferase activity: no effect
[11]; PVEC, HSVSMC and human aortic VSMC, EGF 100 ng/ml, 48 hours, serum-free
  increase in luciferase activity: ~3 fold

## PDGF
[11]; all cell types studied (PVEC, HSVSMC, human aortic VSMC, HeLa)
  estrogen receptor activation: did not activate the estrogen receptor

## estrogen
[10]; eNOS KO mice, ovariectomized female
  protection against injury (medial area endpoint): still able to protect against injury
[12]
  time of protein tyrosine phosphorylation after exposure: 5 to 10 min
[13]; HeLa cells co-transfected with estrogen receptor α expression plasmid, n=21
  increase of luciferase expression: 4.2±0.8 fold
[13]; HeLa cells without estrogen receptor α, estrogen containing media
  effect on luciferase expression: no effect
[14]
  increase in luciferase activity: 1.8 fold
[15]
  increase of luciferase expression: 1.7±0.2 fold
[16]
  activation of pERE-Luc reporter: 8 fold
[17]
  reduction of the incidence of coronary artery disease: 30-50%
[18]
  effect on luciferase activity: no effect
[19]
  activation of VEGF expression: did not activate VEGF expression

## herbamycin A
[1]; PAEC
  inhibition of acute eNOS response to E2: completely inhibit
  basal eNOS activity: do not alter basal eNOS activity
